# Experiments:
# [1] = Death and body weight of tumor-bearing mice (CT26 model); assay type: in vivo
# Procedure: Therefore, the dose of the two compounds, compound 360 and compound 117, in the present experiment was set as 100 mg/kg. In order to observe dose-efficacy relevance of 231, a dose of the compound 231 was set as 25, 50, 100, 200 mg/kg in the present experiment. All drugs were administered by gavage, twice a day.
# The day of tumor inoculation was defined as Day 0, and the inoculated animals were grouped randomly on the day of inoculation. One day after the inoculation (Day 1), the administration was started. The experiment had 7 groups in total, with 12 animals in each group. See details in Table 12 for information on animal grouping and administration.
# (3) As for animal weight, body weight of the mouse was weighed each time when the tumor diameter was measured or before the administration, and death of the animals was observed once a day.
# 7.1 Death and Body Weight of Tumor-Bearing Mice
# [2] = molecular target: T1, CYP2C9 (Homo sapiens, UniProt P11712); experiment: Inhibition on human liver microsome CYP2C9; assay type: in vitro ADME; conditions: human liver microsomes; for IC50: 5-in-1 probe substrate
# T1 construct: tissue Corning Inc. or XenoTech, LLC. or other suppliers; host or cells: mixed human liver microsomes
# T1 sequence (P11712 whole entry): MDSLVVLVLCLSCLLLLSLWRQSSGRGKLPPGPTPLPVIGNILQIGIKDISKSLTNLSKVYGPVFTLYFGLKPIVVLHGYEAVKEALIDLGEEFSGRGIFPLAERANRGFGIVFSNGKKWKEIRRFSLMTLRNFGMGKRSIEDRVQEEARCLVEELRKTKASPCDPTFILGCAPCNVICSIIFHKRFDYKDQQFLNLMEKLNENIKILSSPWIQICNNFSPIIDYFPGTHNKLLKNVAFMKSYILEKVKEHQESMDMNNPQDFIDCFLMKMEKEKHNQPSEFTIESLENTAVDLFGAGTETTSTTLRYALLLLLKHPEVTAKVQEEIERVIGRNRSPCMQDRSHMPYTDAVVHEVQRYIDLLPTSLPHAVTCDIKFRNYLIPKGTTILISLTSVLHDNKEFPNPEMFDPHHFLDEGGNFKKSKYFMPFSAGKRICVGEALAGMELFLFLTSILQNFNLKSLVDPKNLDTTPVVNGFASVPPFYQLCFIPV
# Procedure: (§1) The research project aimed at evaluating inhibitory ability of a sample for test on human liver microsome cytochrome P450 isozymes (CYP1A2, CYP2C9, CYP2C19, CYP2D6, and CYP3A4) with use of a 5-in-1 probe substrate for CYP isozymes.
# (§2) Mixed human liver microsomes (HLM) were purchased from Corning Inc. (Steuben, N.Y., USA) or XenoTech, LLC. (Lenexa, Kans., USA) or other suppliers, and stored in a condition below −70° C. before use.
# (§3) Diluted working solutions of the sample for test in serial concentrations were added to an incubation system containing the human liver microsomes, probe substrate, and accessory factors of a cycling system, and a control containing no sample for test but a solvent was taken as a control for enzymatic activity (100%). Concentration of metabolites generated by the probe substrate in the sample was measured with a method of liquid chromatography-tandem mass spectrometry (LC-MS/MS). Nonlinear regression analysis of mean percentage activity vs concentration of the sample for test was carried out using SigmaPlot (V.11). An IC^50 value was calculated through a three-parameter or four-parameter inflection logarithmic equation.
# [3] = molecular target: T2, CYP1A2 (Homo sapiens, UniProt P05177); experiment: Inhibition on human liver microsome CYP1A2; assay type: in vitro ADME; conditions: human liver microsomes; for IC50: 5-in-1 probe substrate
# T2 construct: tissue Corning Inc. or XenoTech, LLC. or other suppliers; host or cells: mixed human liver microsomes
# T2 sequence (P05177 1-516): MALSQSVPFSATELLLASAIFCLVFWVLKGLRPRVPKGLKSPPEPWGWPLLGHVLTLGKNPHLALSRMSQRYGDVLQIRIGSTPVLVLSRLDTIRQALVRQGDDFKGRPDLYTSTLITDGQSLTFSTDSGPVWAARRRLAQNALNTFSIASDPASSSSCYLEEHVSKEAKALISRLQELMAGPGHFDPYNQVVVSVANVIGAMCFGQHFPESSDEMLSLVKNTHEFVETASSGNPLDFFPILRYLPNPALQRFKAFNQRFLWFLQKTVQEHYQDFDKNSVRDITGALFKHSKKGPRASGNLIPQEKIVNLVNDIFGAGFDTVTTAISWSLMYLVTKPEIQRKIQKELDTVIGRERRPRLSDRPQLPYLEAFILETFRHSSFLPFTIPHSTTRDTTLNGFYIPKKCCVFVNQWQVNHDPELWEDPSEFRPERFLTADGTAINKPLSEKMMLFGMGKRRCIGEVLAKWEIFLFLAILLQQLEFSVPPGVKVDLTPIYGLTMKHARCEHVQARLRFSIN
# Procedure: as §1, §2, §3
# [4] = Liver microsome stability, rat; assay type: in vitro ADME, SD rats; conditions: rat liver microsomes; for CLint scaled: SD, read-out: Intrinsic clearance; for Remaining % (60 min): 37° C.
# Procedure: The purpose of research in the present experiment is assessing phase I metabolic stability of the sample for test in CD-1 mice, SD rats, and human liver microsomes.
# The animals and human liver microsomes used in this test system were purchased from BD Gentest, Xenotech, Corning or BioreclamationIVT, and stored in a refrigerator at −80° C. before use.
# The sample for test and control were incubated together with the microsomes under a condition of 37° C. for 60 minutes, and a cold acetonitrile solution (or other organic solvents) containing an internal standard substance was added at a designated time point to terminate the reaction. After centrifugation, a resultant supernatant was assayed in a semiquantitative manner through liquid chromatography tandem mass spectrometry (LC/MS/MS). Software Analyst (AB Sciex, Framingham, Mass., USA) was used for processing retention time of analyte and internal standard, and achieving chromatogram collection, and chromatogram integration
# An in vitro elimination rate constant ke of the sample was obtained by converting a ratio of the sample to a peak area of the internal standard to remaining percentage, to calculate an in vitro elimination rate and half-life of the sample for test.
# [5] = Pharmacokinetics experiment of mice in vivo, single intravenous injection; design: species or system male CD-1 mice; conditions: Mouse PK, IV 1 mg/kg; for AUC(0-inf) / AUC(0-t) / Vd / clearance / half-life: male, CD-1, plasma
# Procedure: The present experiment aimed at researching status of pharmacokinetics of a sample for test in plasma of male CD-1 mice after single intravenous injection.
# Three animals in an intravenous group were intravenously injected with the sample for test by 1 mg/kg, and a formulation was 0.2 mg/mL settled solution of 5% DMSO/95% (10% HP-β-CD). 5 minutes, 15 minutes, 30 minutes, 1 hour, 2 hours, 4 hours, 6 hours, 8 hours, and 24 hours after the administration, blood was collected and prepared into a plasma specimen, with an anticoagulant of EDTA-K2. Plasma concentration data was obtained by analyzing the specimen through LC-MS/MS.
# The plasma drug concentration data was processed with a non-compartment model using WinNonlin™ Version 6.3 (Pharsight, Mountain View, Calif.) pharmacokinetics software. Following pharmacokinetics parameters were calculated using a log-linear trapezoidal method: elimination phase half-life (T1/2), apparent volume of distribution (Vdss), and clearance rate (CL), mean retention time of drug in body from point 0 to end time point (MRT0-last), mean retention time of drug in body from point 0 to infinite time (MRT0-inf), area under a time-plasma concentration curve from point 0 to end time point (AUC0-last), area under a time-plasma concentration curve from point 0 to infinite time (AUC0-inf), and initial concentration (C0).
structure (smiles),measurement,setting,value
NS(=O)(=O)NCCSc1nonc1/C(=N/O)Nc1ccc(F)c(Br)c1 [Compound 0117],Rate of Weight Change of D17 vs D1,[1]; 100 mg/kg gavage BID,8.5%
same,body weight compared with the control group when the experiment was ended,[1]; 100 mg/kg gavage BID,remarkably decreased weight
same,Body weight of tumor-bearing mice,"[1]; 100 mg/kg gavage BID, D12",23.1 g
same,Body weight of tumor-bearing mice,"[1]; 100 mg/kg gavage BID, D14",23.3 g
same,Body weight of tumor-bearing mice,"[1]; 100 mg/kg gavage BID, D17",24.2 g
same,Body weight of tumor-bearing mice,"[1]; 100 mg/kg gavage BID, Day1",22.3 g
same,Body weight of tumor-bearing mice,"[1]; 100 mg/kg gavage BID, Day3",22.7 g
same,Body weight of tumor-bearing mice,"[1]; 100 mg/kg gavage BID, Day6",22.7 g
same,Body weight of tumor-bearing mice,"[1]; 100 mg/kg gavage BID, Day8",21.8 g
same,Body weight of tumor-bearing mice,"[1]; 100 mg/kg gavage BID, Day10",22.9 g
CC(=O)NCCSc1nonc1/C(=N/O)Nc1ccc(F)c(Br)c1 [Compound 0227],IC50,[2],15.9 µM
same,IC50,[3],13 µM
same,CLint scaled,[4],91.9 mL/min/kg
same,metabolic stability in words,[4],metabolized quickly
same,Remaining % (60 min),[4],21.6%
same,AUC(0-inf),[5],0.628 µM·h
same,AUC(0-t),[5],0.624 µM·h
same,Vd,[5],2.66 L/kg
same,clearance,[5],64.2 mL/min/kg
same,half-life,[5],0.867 h
NC(=O)NCCSc1nonc1/C(=N/O)Nc1ccc(F)c(Br)c1 [Compound 0231],Rate of Weight Change of D17 vs D1,[1]; 25 mg/kg gavage BID,12.0%
same,body weight compared with the control group when the experiment was ended,[1]; 25 mg/kg gavage BID,no significant difference
same,Body weight of tumor-bearing mice,"[1]; 25 mg/kg gavage BID, D12",23.9 g
same,Body weight of tumor-bearing mice,"[1]; 25 mg/kg gavage BID, D14",24.4 g
same,Body weight of tumor-bearing mice,"[1]; 25 mg/kg gavage BID, D17",25.2 g
same,Body weight of tumor-bearing mice,"[1]; 25 mg/kg gavage BID, Day1",22.5 g
same,Body weight of tumor-bearing mice,"[1]; 25 mg/kg gavage BID, Day3",21.5 g
same,Body weight of tumor-bearing mice,"[1]; 25 mg/kg gavage BID, Day6",23.3 g
same,Body weight of tumor-bearing mice,"[1]; 25 mg/kg gavage BID, Day8",23.0 g
same,Body weight of tumor-bearing mice,"[1]; 25 mg/kg gavage BID, Day10",23.1 g
same,Rate of Weight Change of D17 vs D1,[1]; 50 mg/kg gavage BID,7.5%
same,body weight compared with the control group when the experiment was ended,[1]; 50 mg/kg gavage BID,remarkably decreased weight
same,Body weight of tumor-bearing mice,"[1]; 50 mg/kg gavage BID, D12",23.4 g
same,Body weight of tumor-bearing mice,"[1]; 50 mg/kg gavage BID, D14",24.2 g
same,Body weight of tumor-bearing mice,"[1]; 50 mg/kg gavage BID, D17",24.5 g
same,Body weight of tumor-bearing mice,"[1]; 50 mg/kg gavage BID, Day1",22.8 g
same,Body weight of tumor-bearing mice,"[1]; 50 mg/kg gavage BID, Day3",23.0 g
same,Body weight of tumor-bearing mice,"[1]; 50 mg/kg gavage BID, Day6",22.7 g
same,Body weight of tumor-bearing mice,"[1]; 50 mg/kg gavage BID, Day8",22.6 g
same,Body weight of tumor-bearing mice,"[1]; 50 mg/kg gavage BID, Day10",23.2 g
same,Rate of Weight Change of D17 vs D1,[1]; 100 mg/kg gavage BID,8.4%
same,body weight compared with the control group when the experiment was ended,[1]; 100 mg/kg gavage BID,remarkably decreased weight
same,Body weight of tumor-bearing mice,"[1]; 100 mg/kg gavage BID, D12",23.5 g
same,Body weight of tumor-bearing mice,"[1]; 100 mg/kg gavage BID, D14",24.3 g
same,Body weight of tumor-bearing mice,"[1]; 100 mg/kg gavage BID, D17",24.4 g
same,Body weight of tumor-bearing mice,"[1]; 100 mg/kg gavage BID, Day1",22.5 g
same,Body weight of tumor-bearing mice,"[1]; 100 mg/kg gavage BID, Day3",22.7 g
same,Body weight of tumor-bearing mice,"[1]; 100 mg/kg gavage BID, Day6",22.8 g
same,Body weight of tumor-bearing mice,"[1]; 100 mg/kg gavage BID, Day8",23.2 g
same,Body weight of tumor-bearing mice,"[1]; 100 mg/kg gavage BID, Day10",23.4 g
same,Rate of Weight Change of D17 vs D1,[1]; 200 mg/kg gavage BID,4.4%
same,body weight compared with the control group when the experiment was ended,[1]; 200 mg/kg gavage BID,remarkably decreased weight
same,Body weight of tumor-bearing mice,"[1]; 200 mg/kg gavage BID, D12",22.3 g
same,Body weight of tumor-bearing mice,"[1]; 200 mg/kg gavage BID, D14",22.9 g
same,Body weight of tumor-bearing mice,"[1]; 200 mg/kg gavage BID, D17",23.7 g
same,Body weight of tumor-bearing mice,"[1]; 200 mg/kg gavage BID, Day1",22.7 g
same,Body weight of tumor-bearing mice,"[1]; 200 mg/kg gavage BID, Day3",23.2 g
same,Body weight of tumor-bearing mice,"[1]; 200 mg/kg gavage BID, Day6",20.8 g
same,Body weight of tumor-bearing mice,"[1]; 200 mg/kg gavage BID, Day8",21.9 g
same,Body weight of tumor-bearing mice,"[1]; 200 mg/kg gavage BID, Day10",22.0 g
same,inhibiting effect on CYP2C9 in words,[2],relatively weak effect
same,IC50,[2],> 50 µM
same,inhibiting effect on CYP1A2 in words,[3],relatively weak effect
same,IC50,[3],> 50 µM
same,CLint scaled,[4],23.7 mL/min/kg
same,metabolic stability in words,[4],metabolized in a relatively steady manner
same,Remaining % (60 min),[4],64.8%
same,Conc. (8 h),"[5]; plasma, 8 h",8.16/ND nM
same,AUC(0-inf),[5],0.881 µM·h
same,AUC(0-t),[5],0.852 µM·h
same,Vd,[5],4.85 L/kg
same,clearance,[5],55.1 mL/min/kg
same,half-life,[5],2.44 h
"NS(=O)(=O)NCCNc1nonc1C(=NO)Nc1ccc(F)c(Br)c1 [Compound 360, INCB024360, reference compound]",Rate of Weight Change of D17 vs D1,[1]; 100 mg/kg gavage BID,9.4%
same,body weight compared with the control group when the experiment was ended,[1]; 100 mg/kg gavage BID,no significant difference
same,Body weight of tumor-bearing mice,"[1]; 100 mg/kg gavage BID, D12",24.5 g
same,Body weight of tumor-bearing mice,"[1]; 100 mg/kg gavage BID, D14",25.0 g
same,Body weight of tumor-bearing mice,"[1]; 100 mg/kg gavage BID, D17",25.3 g
same,Body weight of tumor-bearing mice,"[1]; 100 mg/kg gavage BID, Day1",23.2 g
same,Body weight of tumor-bearing mice,"[1]; 100 mg/kg gavage BID, Day3",23.5 g
same,Body weight of tumor-bearing mice,"[1]; 100 mg/kg gavage BID, Day6",23.7 g
same,Body weight of tumor-bearing mice,"[1]; 100 mg/kg gavage BID, Day8",23.5 g
same,Body weight of tumor-bearing mice,"[1]; 100 mg/kg gavage BID, Day10",23.9 g
